In ChEMBL document CHEMBL5154882, “Discovery of 4-Hydroxyquinazoline Derivatives as Small Molecular BET/PARP1 Inhibitors That Induce Defective Homologous Recombination and Lead to Synthetic Lethality for Triple-Negative Breast Cancer Therapy” (J Med Chem, 2022):
Calls of active or inactive are those of the source. No cut-off for these calls is given here.

How the values were obtained:
MDA-MB-231 [1] = assay: Antitumor activity against human MDA-MB-231 cells xenografted in BALB/c nude mouse assessed as tumor growth inhibition at 80 mg/kg incubated for 30 to 40 mins by Ki-67 staining based immunohistochemical analysis; type: functional, organism-based; details: time 30-40 min
MDA-MB-231 [2] = assay: Antitumor activity against human MDA-MB-231 cells xenografted in BALB/c nude mouse assessed as reduction in CtIp expression at 80 mg/kg incubated for 30 to 40 mins by immunohistochemical analysis; type: functional, organism-based; details: time 30-40 min
MDA-MB-231 [3] = assay: Antiproliferative activity against human MDA-MB-231 cells assessed as reduction in cell viability incubated for 72 hrs by MTT assay; type: functional, cell-based; details: MDA-MB-231, 72 h
MDA-MB-468 [4] = assay: Antiproliferative activity against human MDA-MB-468 cells assessed as reduction in cell viability incubated for 72 hrs by MTT assay; type: functional, cell-based; details: MDA-MB-468, 72 h
[5] = biological target: Bromodomain-containing protein 4 (Homo sapiens, UniProt O60885); assay: Inhibition of BRD4 (unknown origin) at 1 uM relative to control
[6] = biological target: T1, Poly [ADP-ribose] polymerase 1 (Homo sapiens, UniProt P09874); assay: Inhibition of PARP1 (unknown origin) at 1 uM relative to control
T1 sequence (P09874 whole entry): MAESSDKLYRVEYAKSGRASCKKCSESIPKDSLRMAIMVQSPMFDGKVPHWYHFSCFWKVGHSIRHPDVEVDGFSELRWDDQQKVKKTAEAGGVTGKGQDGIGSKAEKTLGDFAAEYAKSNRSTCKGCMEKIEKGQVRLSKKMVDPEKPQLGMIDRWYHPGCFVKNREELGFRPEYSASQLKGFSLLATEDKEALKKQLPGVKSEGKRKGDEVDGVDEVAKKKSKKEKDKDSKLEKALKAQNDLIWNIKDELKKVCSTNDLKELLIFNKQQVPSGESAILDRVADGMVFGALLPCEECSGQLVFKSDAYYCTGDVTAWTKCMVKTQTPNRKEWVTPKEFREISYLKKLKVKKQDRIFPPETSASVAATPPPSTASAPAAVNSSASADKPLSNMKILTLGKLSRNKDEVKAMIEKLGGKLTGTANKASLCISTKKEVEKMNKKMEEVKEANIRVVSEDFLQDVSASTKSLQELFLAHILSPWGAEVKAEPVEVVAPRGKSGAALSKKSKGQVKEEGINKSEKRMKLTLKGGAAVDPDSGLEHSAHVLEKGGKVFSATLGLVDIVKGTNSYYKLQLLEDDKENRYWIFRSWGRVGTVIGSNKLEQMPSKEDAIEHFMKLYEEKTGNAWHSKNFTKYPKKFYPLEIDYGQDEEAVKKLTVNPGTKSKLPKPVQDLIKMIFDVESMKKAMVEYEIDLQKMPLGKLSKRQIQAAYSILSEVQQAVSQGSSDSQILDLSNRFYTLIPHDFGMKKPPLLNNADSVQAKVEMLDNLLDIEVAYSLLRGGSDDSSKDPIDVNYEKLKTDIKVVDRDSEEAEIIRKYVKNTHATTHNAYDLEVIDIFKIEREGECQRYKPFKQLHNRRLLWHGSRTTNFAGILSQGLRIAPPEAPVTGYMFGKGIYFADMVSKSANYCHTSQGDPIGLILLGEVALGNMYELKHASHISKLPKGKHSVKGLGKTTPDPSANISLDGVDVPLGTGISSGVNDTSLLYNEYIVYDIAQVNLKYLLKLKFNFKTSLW

[7] = biological target: T1, Poly [ADP-ribose] polymerase 1; assay: Inhibition of PARP1 (unknown origin) using NAD+ as substrate incubated for 60 mins by ELISA
MDA-MB-468 [8] = assay: Antitumor activity against human MDA-MB-468 cells xenografted in BALB/c nude mouse model assessed as tumor growth inhibition at 80 mg/kg, ig administered daily for 16 days measured every 3 days relative to control; type: functional; details: MDA-MB-468, po, 384 h, time 16 day, read-out: TGI
[9] = Toxicity in BALB/c nude mouse xenografted with human MDA-MB-468 cells assessed as change in body weight at 40 to 80 mg/kg, ig administered daily for 16 days measured every 3 days; type: organism-based; details: in vivo, po, 384 h, dose 40-80 mg/kg, time 16 day
[10] = Toxicity in BALB/c nude mouse xenografted with human MDA-MB-468 cells assessed as change in body weight at 80 mg/kg, ig administered daily for 16 days measured every 3 days; type: organism-based; details: in vivo, po, 384 h, time 16 day
[11] = Toxicity in BALB/c nude mouse xenografted with human MDA-MB-468 cells assessed as death at 40 to 80 mg/kg, ig administered daily for 16 days measured every 3 days; type: organism-based; details: in vivo, po, 384 h, dose 40-80 mg/kg, time 16 day
[12] = Toxicity in BALB/c nude mouse xenografted with human MDA-MB-468 cells assessed as death at 80 mg/kg, ig administered daily for 16 days measured every 3 days; type: organism-based; details: in vivo, po, 384 h, time 16 day
[13] = Toxicity in BALB/c nude mouse xenografted with human MDA-MB-468 cells assessed as morphological changes in heart at 80 mg/kg, ig administered daily for 16 days measured every 3 days by hematoxyin-eosin staining based analysis; type: organism-based; details: in vivo, po, 384 h, time 16 day
[14] = Toxicity in BALB/c nude mouse xenografted with human MDA-MB-468 cells assessed as morphological changes in heart at 40 to 80 mg/kg, ig administered daily for 16 days measured every 3 days by hematoxyin-eosin staining based analysis; type: organism-based; details: in vivo, po, 384 h, dose 40-80 mg/kg, time 16 day
[15] = Toxicity in BALB/c nude mouse xenografted with human MDA-MB-468 cells assessed as morphological changes in liver at 80 mg/kg, ig administered daily for 16 days measured every 3 days by hematoxyin-eosin staining based analysis; type: organism-based; details: in vivo, po, 384 h, time 16 day
[16] = Toxicity in BALB/c nude mouse xenografted with human MDA-MB-468 cells assessed as morphological changes in liver at 40 to 80 mg/kg, ig administered daily for 16 days measured every 3 days by hematoxyin-eosin staining based analysis; type: organism-based; details: in vivo, po, 384 h, dose 40-80 mg/kg, time 16 day
[17] = Toxicity in BALB/c nude mouse xenografted with human MDA-MB-468 cells assessed as morphological changes in spleen at 80 mg/kg, ig administered daily for 16 days measured every 3 days by hematoxyin-eosin staining based analysis; type: organism-based; details: in vivo, po, 384 h, time 16 day
[18] = Toxicity in BALB/c nude mouse xenografted with human MDA-MB-468 cells assessed as morphological changes in spleen at 40 to 80 mg/kg, ig administered daily for 16 days measured every 3 days by hematoxyin-eosin staining based analysis; type: organism-based; details: in vivo, po, 384 h, dose 40-80 mg/kg, time 16 day
[19] = Toxicity in BALB/c nude mouse xenografted with human MDA-MB-468 cells assessed as morphological changes in lung at 80 mg/kg, ig administered daily for 16 days measured every 3 days by hematoxyin-eosin staining based analysis; type: organism-based; details: in vivo, po, 384 h, time 16 day
[20] = Toxicity in BALB/c nude mouse xenografted with human MDA-MB-468 cells assessed as morphological changes in lung at 40 to 80 mg/kg, ig administered daily for 16 days measured every 3 days by hematoxyin-eosin staining based analysis; type: organism-based; details: in vivo, po, 384 h, dose 40-80 mg/kg, time 16 day
[21] = Toxicity in BALB/c nude mouse xenografted with human MDA-MB-468 cells assessed as morphological changes in kidney at 80 mg/kg, ig administered daily for 16 days measured every 3 days by hematoxyin-eosin staining based analysis; type: organism-based; details: in vivo, po, 384 h, time 16 day
[22] = Toxicity in BALB/c nude mouse xenografted with human MDA-MB-468 cells assessed as morphological changes in kidney at 40 to 80 mg/kg, ig administered daily for 16 days measured every 3 days by hematoxyin-eosin staining based analysis; type: organism-based; details: in vivo, po, 384 h, dose 40-80 mg/kg, time 16 day
MDA-MB-231 [23] = assay: Antitumor activity against human MDA-MB-231 cells xenografted in BALB/c nude mouse assessed as reduction in c-Myc expression at 80 mg/kg incubated for 30 to 40 mins by immunohistochemical analysis; type: functional, organism-based; details: time 30-40 min
MDA-MB-231 [24] = assay: Antitumor activity against human MDA-MB-231 cells xenografted in BALB/c nude mouse assessed as reduction in PAR expression at 80 mg/kg incubated for 30 to 40 mins by immunohistochemical analysis; type: functional, organism-based; details: time 30-40 min
MDA-MB-231 [25] = assay: Antitumor activity against human MDA-MB-231 cells xenografted in BALB/c nude mouse assessed as reduction in Rad51 expression at 80 mg/kg incubated for 30 to 40 mins by immunohistochemical analysis; type: functional, organism-based; details: time 30-40 min
MDA-MB-231 [26] = assay: Antitumor activity against human MDA-MB-231 cells xenografted in BALB/c nude mouse assessed as downregulation of CtIP at 80 mg/kg by Western blot analysis; type: functional, organism-based
MDA-MB-231 [27] = assay: Antitumor activity against human MDA-MB-231 cells xenografted in BALB/c nude mouse assessed as downregulation of c-Myc at 80 mg/kg by Western blot analysis; type: functional, organism-based
MDA-MB-231 [28] = assay: Antitumor activity against human MDA-MB-231 cells xenografted in BALB/c nude mouse assessed as downregulation of PAR at 80 mg/kg by Western blot analysis; type: functional, organism-based
MDA-MB-231 [29] = assay: Antitumor activity against human MDA-MB-231 cells xenografted in BALB/c nude mouse assessed as downregulation of Rad51 at 80 mg/kg by Western blot analysis; type: functional, organism-based

Which results are given for `COc1cc(OC)c2c(=O)[nH]c(-c3cc(C)c(OCCOc4ccccc4C(N)=O)c(C)c3)nc2c1`?
Activity (MDA-MB-231 [1]): Active; Activity (MDA-MB-231 [2]): Active; IC50 (MDA-MB-231 [3]): 15.6 µM; IC50 (MDA-MB-468 [4]): 6.42 µM; inhibition [5]: 66.2%; inhibition [6]: 35.9%; IC50 [7]: 0.0046 µM; inhibition in vivo at 80 mg/kg (MDA-MB-468 [8]): 62.5%; Activity [9]: Non-Toxic; Activity [10]: Non-Toxic; Activity [11]: Non-Toxic; Activity [12]: Non-Toxic; Activity [13]: Non-Toxic; Activity [14]: Non-Toxic; Activity [15]: Non-Toxic; Activity [16]: Non-Toxic; Activity [17]: Non-Toxic; Activity [18]: Non-Toxic; Activity [19]: Non-Toxic; Activity [20]: Non-Toxic; Activity [21]: Non-Toxic; Activity [22]: Non-Toxic; Activity (MDA-MB-231 [23]): Active; Activity (MDA-MB-231 [24]): Active; Activity (MDA-MB-231 [25]): Active; Activity (MDA-MB-231 [26]): Active; Activity (MDA-MB-231 [27]): Active; Activity (MDA-MB-231 [28]): Active; Activity (MDA-MB-231 [29]): Active
